Test [1] has as its target T1, E6C51S/E6AP (Human papillomavirus type 16, UniProt P03126, C58S). The test is described as follows: E6/E6AP binding assay (amylose-bound MBP-16E6, E6AP-BAP activity), C51S 16E6. The following applies: for % Inhibition @ 10 μM E6C51S/E6AP: 10 μM compound; for % Inhibition @ 100 μM E6C51S/E6AP: 100 μM compound. Details: species or system HPV-16.
Test [2] deals with T2, E6 WT/E6AP (Human papillomavirus type 16, UniProt P03126). The test can be described thus: biochemical. As to conditions: WT 16E6; for inhibition at 10 µM: 10 μM compound; for inhibition at 100 µM: 100 μM compound. Format: binding.
In test [3] the target is T2, E6 WT/E6AP. The test is described as follows: biochemical. As to conditions: for Emax: at 24 h, E6 WT, read-out: BLI maximal Inhibition (max %) E6 WT/E6AP. The test is classed as binding.
Test [4] has as its target T1, E6C51S/E6AP. The test is described as follows: BLI binding assay, E6 C51S binding to captured E6AP. More on the design: species or system HPV-16. As to conditions: for BLI maximal Inhibition (max %) E6C51S/E6AP: at 24 h, E6 C51S.
Test [5] relates to RPE-1 cells. The test is described as follows: Colony formation, crystal violet absorbance at 590 nm. The test is classed as cell-based. The following applies: RPE-1 cells (no HPV), 14 days, normalized to DMSO, FIG. 6. How it is done:
FIG. 6 depicts colony formation capabilities of SiHa, CaSki or RPE-1 cells in the presence of the indicated concentrations of EIN-166. Fifty cells were seeded and incubated with DMSO or EIN-166. After 14 days, cells were fixed and stained with crystal violet. Stained colonies were dissolved and absorbance at 590 nm was measured. Treatments were normalized to DMSO. Data expressed as S.E.M and *P<0.05 (n=3).

For test [6], the target named is T2, E6 WT/E6AP. The test can be described thus: biochemical. Format: binding. As to conditions: for Emax: 24 h, read-out: FP maximal inhibition (max %) E6 WT/E6AP.
Test [7] addresses T1, E6C51S/E6AP. The test is described as follows: Fluorescence Polarization (FP) assay, MBP-E6 C51S with labeled peptide. Format: binding, HPV-16. The following applies: at 24 h.
Test [8] concerns the target wild-type E6 (Human papillomavirus type 16, UniProt P03126). Format: binding. As to conditions: 100 μM for 16 hr at 4° C., FIG. 1A top.
The target in test [9] is E6 Cys51Ser mutant (Human papillomavirus type 16, UniProt P03126, C58S). The test can be described thus: Whole protein ESI mass spectrometry, adduct with E6 Cys51Ser mutant. The test is classed as binding, HPV-16. The following applies: 100 μM for 16 hr at 4° C., FIG. 1A bottom.

Like-named read-outs stand apart in the source and are kept apart here.

T1 sequence (P03126 whole entry C58S, looked up): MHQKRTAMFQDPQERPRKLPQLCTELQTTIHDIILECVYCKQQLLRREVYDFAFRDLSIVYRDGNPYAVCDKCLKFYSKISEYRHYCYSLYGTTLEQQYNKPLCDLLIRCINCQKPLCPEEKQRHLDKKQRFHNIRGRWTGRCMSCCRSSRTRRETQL
T2 sequence (P03126 8-158): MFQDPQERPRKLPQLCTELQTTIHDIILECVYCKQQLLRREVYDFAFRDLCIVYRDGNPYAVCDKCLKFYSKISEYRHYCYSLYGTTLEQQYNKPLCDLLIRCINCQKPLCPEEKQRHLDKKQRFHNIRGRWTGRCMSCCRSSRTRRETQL
E6 Cys51Ser mutant, sequence (P03126 8-158 C58S): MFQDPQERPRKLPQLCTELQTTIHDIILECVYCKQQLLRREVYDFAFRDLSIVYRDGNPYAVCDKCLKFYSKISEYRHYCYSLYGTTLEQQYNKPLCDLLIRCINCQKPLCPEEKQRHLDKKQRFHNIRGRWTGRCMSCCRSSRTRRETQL
wild-type E6, sequence (P03126 8-158): as the sequence (P03126 8-158) above

On to `O=C(CCl)N1CCN(c2nc(CCc3ccccc3)nc3sc4c(c23)CCCC4)CC1` [EIN-125, 2-chloro-1-(4-(2-phenethyl-5,6,7,8-tetrahydrobenzo[4,5]thieno[2,3-d]pyrimidin-4-yl)piperazin-1-yl)ethan-1-one], for which, in test [1], the “% Inhibition @ 10 μM E6C51S/E6AP” value stood at 32 ± 11% and the “% Inhibition @ 100 μM E6C51S/E6AP” value is 62 ± 1%. Also, in test [2], the inhibition at 10 µM is 54 ± 13% and the inhibition at 100 µM worked out at 102 ± 10%. The Emax in test [3] came out at 100%. The “BLI maximal Inhibition (max %) E6C51S/E6AP” value in [4] was “(max 100%)”.
For `C=CC(=O)N1CCN(C(=O)CN2CCc3ccccc3C2c2ccccc2C)CC1` (stereo not drawn) [EIN-166, 1-(4-(2-(1-(o-tolyl)-3,4-dihydroisoquinolin-2(1H)-yl)acetyl)piperazin-1-yl)prop-2-en-1-one], the colony formation capability result in [5] is “no significant changes”. Also, in test [6], the Emax was 100%. Moreover, it took 73.4 ± 3.7 µM to reach half-maximal inhibition in test [6] (FP IC50 at 24 h (μM) E6 WT/E6AP) (IC50).
In the case of `C=CC(=O)N1CCN(c2nc(CCc3cccc(OC)c3)nc3sccc23)CC1` [EIN-152, 1-(4-(2-(3-methoxyphenethyl)thieno[2,3-d]pyrimidin-4-yl)piperazin-1-yl)prop-2-en-1-one], the Emax in [6] was 98%; in test [3] it was 100%. The “FP maximal inhibition (max %) E6C51S/E6AP” value in [7] was “(max 100%)”. Besides, in test [4], the “BLI maximal Inhibition (max %) E6C51S/E6AP” value is “(max 60%)”.
Consider `C=CC(=O)N1CCN(c2nc(CCc3ccccc3)nc3sc4c(c23)CCCC4)CC1` [EIN-132, 1-(4-(2-phenethyl-5,6,7,8-tetrahydrobenzo[4,5]thieno[2,3-d]pyrimidin-4-yl)piperazin-1-yl)prop-2-en-1-one], for which, in test [1], the “% Inhibition @ 10 μM E6C51S/E6AP” value turned out to be 0% and the “% Inhibition @ 100 μM E6C51S/E6AP” value was determined as 19 ± 5%. In addition, in test [2], the inhibition at 10 µM was determined as 3.5 ± 2% and the inhibition at 100 µM stood at 61 ± 2%. Moreover, the Emax in test [3] is 100%. Moreover, the “BLI maximal Inhibition (max %) E6C51S/E6AP” value in test [4] was “(max 100%)”.
On to `COc1cccc(CCc2nc(N3CCN(C(=O)/C=C/CN(C)C)CC3)c3ccccc3n2)c1` [EIN-155, (E)-4-(dimethylamino)-1-(4-(2-(3-methoxyphenethyl)quinazolin-4-yl)piperazin-1-yl)but-2-en-1-one], for which the Emax in test [6] and in test [3] was 100% throughout. Moreover, the “BLI maximal Inhibition (max %) E6C51S/E6AP” value in test [4] is reported as “(max 100%)”.
`Cc1ccccc1C1c2ccsc2CCN1CC(=O)N1CCCN(C(=O)CCl)CC1` (stereo not drawn) [EIN-116, 2-chloro-1-(4-(2-(4-(o-tolyl)-6,7-dihydrothieno[3,2-c]pyridin-5(4H)-yl)acetyl)-1,4-diazepan-1-yl)ethan-1-one]: in test [1], the “% Inhibition @ 10 μM E6C51S/E6AP” value worked out at 5 ± 5% and the “% Inhibition @ 100 μM E6C51S/E6AP” value came out at 36 ± 11%. Also, in [2], the inhibition at 10 µM came to 29 ± 8% and the inhibition at 100 µM came out at 74 ± 3%. Moreover, the “adduct formation with wild-type E6” value in [8] is on record as “formed an adduct”. The “inhibition of E6 binding to E6AP (BLI), in words” value in test [3] (E6 WT with increasing concentration of compound) was “inhibited E6 binding to E6AP in a concentration-dependent manner”. For the same compound, the Emax in test [3] is 100%. In addition, the “loss of ability to inhibit mutant form E6-Cys51Ser (BLI), in words” value in [4] (FIG. 1B, E6-Cys51Ser) is “partly”. Further, in test [4], the “BLI maximal Inhibition (max %) E6C51S/E6AP” value is on record as “(max 100%)”. In addition, the “adduct formation with E6 Cys51Ser mutant” value in [9] was “not with E6 Cys51Ser mutant”.
As for `C=CC(=O)N1CCN(c2nc(CCc3cccc(OC)c3)nc3ccccc23)CC1` [EIN-154, 1-(4-(2-(3-methoxyphenethyl)quinazolin-4-yl)piperazin-1-yl)prop-2-en-1-one], the Emax in test [6] worked out at 93%; in [3], 100%. In addition, in test [4], the “BLI maximal Inhibition (max %) E6C51S/E6AP” value was “(max 75%)”.
As for `C=CC(=O)N1CCN(c2nc(CCc3cccc(OC)c3)nc3sc4c(c23)CCCCC4)CC1` [EIN-150, 1-(4-(2-(3-methoxyphenethyl)-6,7,8,9-tetrahydro-5H-cyclohepta[4,5]thieno[2,3-d]pyrimidin-4-yl)piperazin-1-yl)prop-2-en-1-one], the Emax in test [6] came out at 57%; in test [3], 100%. Besides, in test [4], the “BLI maximal Inhibition (max %) E6C51S/E6AP” value is on record as “(max 100%)”.
With `C=CC(=O)N1CCN(c2nc(Cc3ccc(F)cc3)nc3sc4c(c23)CCCC4)CC1` [EIN-146, 1-(4-(2-(4-fluorobenzyl)-5,6,7,8-tetrahydrobenzo[4,5]thieno[2,3-d]pyrimidin-4-yl)piperazin-1-yl)prop-2-en-1-one], in test [1], the “% Inhibition @ 10 μM E6C51S/E6AP” value was 11 ± 7% and the “% Inhibition @ 100 μM E6C51S/E6AP” value is recorded as 15 ± 8%. Moreover, in test [2], the inhibition at 10 µM is 16 ± 4% and the inhibition at 100 µM stood at 30 ± 3%. In test [6], the Emax is 20%. Moreover, the Emax in [3] was determined as 100%. Further, in [4], the “BLI maximal Inhibition (max %) E6C51S/E6AP” value is “(max 100%)”.

The values are drawn from US12533339B2, “Small molecule antiviral drug treatment for human papillomavirus infections” (THE TRUSTEES OF INDIANA UNIVERSITY, priority 2020, dated 2026).
